# Measured values reported in patent US8470889B2 (TRT Pharma Inc., priority 2008, dated 2013).
# Like-named read-outs stand apart in the source and are kept apart here.
# How the values were obtained:
# LNCaP cells [1] = test system: LNCaP cells;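 note: MTT formazan absorbance at 600 nm read after 72 h of compound exposure, IC50 fitted by nonlinear regression of dose-response curves, samples run in triplicate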
# MDA PCa 2b cells [2] = test system: MDA PCa 2b cells;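 note: MDA PCa 2b prostate cancer cells in BRFF-HPC1 with 20% FBS, exposed to compounds for 72 h, viable-cell MTT formazan read as absorbance at 600 nm, 0.5% DMSO vehicle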
# Method: (§2) MDA PCa 2b was seeded at the same density in medium BRFF-HPC1 (Athena Enzyme Systems, Baltimore, Md., USA) supplemented with 20% FBS. After overnight incubation, the medium was changed to a fresh medium containing different concentrations of test compounds diluted from stock DMSO solution. The final concentration of DMSO is 0.5%. After 72 h of incubation with test compounds, 20 μL of 3-(4,5-dimethyl thiazol-2-yl)-2,5-diphenyltetrazolium bromide (MTT) solution (5 mg/mL in PBS) were added to each well and incubated further for 2 h. Next, the supernatant was aspirated and the MTT formazan formed by metabolically viable cells was dissolved in 100 μL of isopropanol. The plates were mixed for 30 min, and the absorbance was measured at 600 nm on a plate reader (FLUOstar OPTIMA, BMG LabTech). All samples were in triplicate. The IC50 values were determined from dose-response curves by nonlinear regression using PRISM v5.00 (GraphPad Software Inc, La Jolla, Calif., USA).
# (§3) The in vitro cytotoxicity of 1-20 were evaluated by MTT assays in a panel of prostate cancer cell lines, including LNCaP, MDA PCa 2b, 22Rv1, C4-2B and PC-3.
# 22Rv1 cells [3] = test system: 22Rv1 cells
# Method: as §2, §3
# C4-2B cells [4] = test system: C4-2B cells;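 note: cells treated with a dilution series for 72 h, then MTT added and absorbance read at 600 nm, IC50 fitted from dose-response curves by nonlinear regression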
# PC-3 cells [5] = test system: PC-3 cells
# Method: as §2, §3
# PC-3 cells [6] = test: MTT cell growth inhibition, PC-3
# Method: as §2, §3
# LNCaP cells [7] = test: MTT cell growth inhibition, LNCaP;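 note: MTT formazan absorbance at 600 nm read after 72 h of compound exposure, IC50 fitted by nonlinear regression of dose-response curves, samples run in triplicate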
# 22Rv1 cells [8] = test: MTT cell growth inhibition, 22Rv1; details: MTT
# Method: as §2, §3
# C4-2B cells [9] = test: MTT cell growth inhibition, C4-2B;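 note: cells treated with a dilution series for 72 h, then MTT added and absorbance read at 600 nm, IC50 fitted from dose-response curves by nonlinear regression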
# MDA PCa 2b cells [10] = test: MTT cell growth inhibition, MDA PCa 2b; details: MTT;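 note: MDA PCa 2b prostate cancer cells in BRFF-HPC1 with 20% FBS, exposed to compounds for 72 h, viable-cell MTT formazan read as absorbance at 600 nm, 0.5% DMSO vehicle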
# Method: as §2, §3
# MCF-7 cells = test: Growth inhibition, MCF-7 breast cancer cells; assay type: cell-based; details: for IC50: Homo sapiens, MCF7, read-out: Cytotoxicity, IC50 (μM) MCF-7
# Source text: (§1) All samples were in triplicate.
# MDA-MB-231 cells = test: Growth inhibition, MDA-MB-231 breast cancer cells; assay type: cell-based; details: for IC50: Homo sapiens, MDA-MB-231
# Source text: as §1
# H-1975 cells = test: Growth inhibition, H-1975 lung cancer cells; assay type: cell-based; details: for IC50: Homo sapiens, NCI-H1975, read-out: Cytotoxicity, IC50 (μM) H-1975
# Source text: as §1
# [11] = Table 10, read-out: Cytotoxicity, IC50 (μM) MDA-M B231
# [12] = read-out: Cellular IC50 (μM) PC-3, Table 2, 72 h, max tested 50 μM (β-ionone 150 μM)
# [13] = read-out: Cellular IC50 (μM) LNCaP, Table 2, 72 h
# [14] = read-out: Cellular IC50 (μM) PCa 2b, Table 2, 72 h
# [15] = read-out: Cellular IC50 (μM) 22Rv1, Table 2, 72 h
# [16] = read-out: Cellular IC50 (μM) C4-2B, Table 2, 72 h
# [17] = read-out: Cellular IC50 (μM) PC3, Table 8
# [18] = read-out: Cellular IC50 (μM) LNCaP, Table 8
# [19] = read-out: Cellular IC50 (μM) 22Rv1, Table 8
# [20] = read-out: Cellular IC50 (μM) C4-2B, Table 8
# [21] = read-out: Cellular IC50 (μM) PCa2b, Table 8
# [22] = Table 11, read-out: Cytotoxicity, IC50 (μM) MDA-MB231
compound,measurement,setting,value
CC1=CCCC(C)(C)C1/C=C/C(=O)/C=C/c1cccc([N+](=O)[O-])c1 (racemic) [Compound B21],IC50,LNCaP cells [1],3.3 µM
same,IC50,MDA PCa 2b cells [2],5.9 µM
same,IC50,22Rv1 cells [3],4.7 µM
same,IC50,C4-2B cells [4],4 µM
same,IC50,PC-3 cells [5],2.9 µM
CC1=C(/C=C/C(=O)/C=C/c2ccccc2)C(C)(C)CCC1O (racemic) [Compound B23],IC50,LNCaP cells [1],5.8 µM
same,IC50,MDA PCa 2b cells [2],12.6 µM
same,IC50,22Rv1 cells [3],8 µM
same,IC50,C4-2B cells [4],1.8 µM
same,IC50,PC-3 cells [5],15.5 µM
CC1=C(/C=C/C(=O)/C=C/c2ccc(F)c(C(F)(F)F)c2)C(C)(C)CCC1O (racemic) [Compound B32],IC50,LNCaP cells [1],2.2 µM
same,IC50,MDA PCa 2b cells [2],10 µM
same,IC50,22Rv1 cells [3],3.2 µM
same,IC50,C4-2B cells [4],7.3 µM
same,IC50,PC-3 cells [5],7.3 µM
"CC(O)(CS(=O)(=O)c1ccc(F)cc1)C(=O)Nc1ccc(C#N)c(C(F)(F)F)c1 (stereo not shown) [Bic, bicalutamide, reference compound]","Cytotoxicity in prostate cancer cell lines IC50 (μM), PC-3","PC-3 cells [6]; Part D table, 72 hours, I.A. = Inactive",I.A.
same,IC50,"LNCaP cells [7]; read-out: Cytotoxicity in prostate cancer cell lines IC50 (μM), LNCaP, Part D table, 72 hours, I.A. = Inactive",12.7 µM
same,IC50,"22Rv1 cells [8]; read-out: Cytotoxicity in prostate cancer cell lines IC50 (μM), 22Rv1, Part D table, 72 hours",> 50 µM
same,IC50,"C4-2B cells [9]; read-out: Cytotoxicity in prostate cancer cell lines IC50 (μM), C4-2B, Part D table, 72 hours, I.A. = Inactive",> 25 µM
same,IC50,"MDA PCa 2b cells [10]; read-out: Cytotoxicity in prostate cancer cell lines IC50 (μM), PCa-2b, Part D table, 72 hours",> 50 µM
CCn1c2ccccc2c2cc(/C=C/C(O)=C/C(=O)/C=C/C3=C(C)CCCC3(C)C)ccc21 [Compound 9],effect in MCF-7 breast cancer cell line,MCF-7 cells,effective
same,IC50,MCF-7 cells; Table 10,9.3 µM
same,effect in MDA-MB-231 breast cancer cell line,MDA-MB-231 cells,effective
same,IC50,MDA-MB-231 cells; [11],11.7 µM
same,effect in H-1975 lung cancer cell line,H-1975 cells,effective
same,IC50,H-1975 cells; Table 10,20.9 µM
same,IC50 (μM) PC-3,"PC-3 cells [6]; Table 1, 72 h, maximum tested concentration 50 μM",Inactive^c
same,IC50,"LNCaP cells [7]; read-out: IC50 (μM) LNCaP, Table 1, 72 h",9.9 µM
same,IC50,"22Rv1 cells [8]; read-out: IC50 (μM) 22Rv1, Table 1, 72 h",4.1 µM
same,IC50,"C4-2B cells [9]; read-out: IC50 (μM) C4-2B, Table 1, 72 h",7.4 µM
CCOc1ccc(C=CC(=O)C(=Cc2ccc(OCC)c(OCC)c2)C(=O)C=CC2=C(C)CCCC2(C)C)cc1OCC [Compound 13],IC50,PC-3 cells [6]; [12],14.1 µM
same,IC50,LNCaP cells [7]; [13],14.9 µM
same,IC50,MDA PCa 2b cells [10]; [14],6.8 µM
CC1=C(C=CC(=O)C(=Cc2ccc(O)cc2)C(=O)C=Cc2ccc(O)cc2)C(C)(C)CCC1 [Compound 14],IC50,PC-3 cells [6]; [12],6.7 µM
same,IC50,LNCaP cells [7]; [13],4.5 µM
same,IC50,22Rv1 cells [8]; [15],4.7 µM
same,IC50,C4-2B cells [9]; [16],4 µM
same,IC50,MDA PCa 2b cells [10]; [14],4.7 µM
COc1cc(C=CC(=O)C(=Cc2cc(OC)c(O)c(OC)c2)C(=O)C=CC2=C(C)CCCC2(C)C)cc(OC)c1O [Compound 15],IC50,PC-3 cells [6]; [12],12.5 µM
same,IC50,LNCaP cells [7]; [13],8.7 µM
same,IC50,22Rv1 cells [8]; [15],17.6 µM
same,IC50,C4-2B cells [9]; [16],8.5 µM
same,IC50,MDA PCa 2b cells [10]; [14],15.3 µM
CCn1c2ccccc2c2cc(/C=C(\C(=O)/C=C/C3=C(C)CCCC3(C)C)C(=O)/C=C/c3ccc(O)c(OC)c3)ccc21 [Compound 19],IC50,PC-3 cells [6]; [12],7 µM
same,IC50,LNCaP cells [7]; [13],2.3 µM
same,IC50,22Rv1 cells [8]; [15],2.4 µM
same,IC50,C4-2B cells [9]; [16],2.3 µM
same,IC50,MDA PCa 2b cells [10]; [14],8.1 µM
"CC1=CCCC(C)(C)C1/C=C/C(=O)/C=C/c1cccc(C(F)(F)F)c1 (stereo not shown) [Compound B17, (1E,4E)-1-(3-(trifluoromethyl)phenyl)-5-(2,6,6-trimethylcyclohex-2-enyl)penta-1,4-dien-3-one]",IC50,"LNCaP cells [1]; human, 72 h",1 µM
same,IC50,"MDA PCa 2b cells [2]; human, 72 h",4.4 µM
same,IC50,"22Rv1 cells [3]; human, 72 h",2.9 µM
same,IC50,"C4-2B cells [4]; human, 72 h",4.4 µM
same,IC50,"PC-3 cells [5]; human, 72 h",5.2 µM
CC1=C(/C=C/C(=O)/C=C/c2ccccc2)C(C)(C)CCC1O (stereo not shown) [Compound B44],IC50,PC-3 cells [6]; [17],15.5 µM
same,IC50,LNCaP cells [7]; [18],5.8 µM
same,IC50,22Rv1 cells [8]; [19],8 µM
same,IC50,C4-2B cells [9]; [20],1.8 µM
same,IC50,MDA PCa 2b cells [10]; [21],12.6 µM
CC1=C(/C=C/C(=O)/C=C/c2cccc(C(F)(F)F)c2)C(C)(C)CCC1O (stereo not shown) [Compound B45],IC50,PC-3 cells [6]; [17],3.5 µM
same,IC50,LNCaP cells [7]; [18],0.74 µM
same,IC50,22Rv1 cells [8]; [19],1.7 µM
same,IC50,C4-2B cells [9]; [20],1.4 µM
same,IC50,MDA PCa 2b cells [10]; [21],2.6 µM
COc1cc(/C=C/C(=O)/C=C/C2=C(C)C(O)CCC2(C)C)ccc1O (stereo not shown) [Compound B68],IC50,PC-3 cells [6]; [17],32.9 µM
same,IC50,LNCaP cells [7]; [18],19.6 µM
same,IC50,22Rv1 cells [8]; [19],22.6 µM
same,IC50,C4-2B cells [9]; [20],20.3 µM
same,IC50,MDA PCa 2b cells [10]; [21],> 25 µM
CC(=O)N1N=C(/C=C/C2C(C)=CCCC2(C)C)CC1c1ccccc1F (stereo not shown) [Compound C1],IC50,MCF-7 cells; Table 11,25.3 µM
same,IC50,MDA-MB-231 cells; [22],20.4 µM
same,IC50,H-1975 cells; Table 11,23.7 µM
same,IC50,"LNCaP cells [1]; human, 72 h",17.1 µM
CC(=O)N1N=C(/C=C/C2C(C)=CCCC2(C)C)CC1c1cccc(C(F)(F)F)c1 (stereo not shown) [Compound C2],IC50,MCF-7 cells; Table 11,23.1 µM
same,IC50,MDA-MB-231 cells; [22],14.4 µM
same,IC50,H-1975 cells; Table 11,14.8 µM
same,IC50,"LNCaP cells [1]; human, 72 h",16.8 µM
same,IC50,"C4-2B cells [4]; human, 72 h",12.2 µM
same,IC50,"PC-3 cells [5]; human, 72 h",15.9 µM
COc1ccc(C2CC(/C=C/C3=C(C)C(O)CCC3(C)C)=NN2C(C)=O)cc1OC (stereo not shown) [Compound C3],IC50,MCF-7 cells; Table 11,> 25 µM
same,IC50,MDA-MB-231 cells; [22],> 25 µM
same,IC50,H-1975 cells; Table 11,> 25 µM
same,IC50,"LNCaP cells [1]; human, 72 h",24.7 µM
same,IC50,"C4-2B cells [4]; human, 72 h",22.1 µM
same,IC50,"PC-3 cells [5]; human, 72 h",25.5 µM
CC(=O)N1N=C(/C=C/C2=C(C)C(O)CCC2(C)C)CC1c1cccc(C(F)(F)F)c1 (stereo not shown) [Compound C4],IC50,MCF-7 cells; Table 11,> 25 µM
same,IC50,MDA-MB-231 cells; [22],> 25 µM
same,IC50,H-1975 cells; Table 11,> 25 µM
same,IC50,"LNCaP cells [1]; human, 72 h",35.4 µM
same,IC50,"C4-2B cells [4]; human, 72 h",17.8 µM
same,IC50,"PC-3 cells [5]; human, 72 h",47 µM
CC1=CCCC(C)(C)C1/C=C/C1=NNC(c2cccc(C(F)(F)F)c2)C1 (stereo not shown) [Compound C5],IC50,MCF-7 cells; Table 11,17.6 µM
same,IC50,MDA-MB-231 cells; [22],15.8 µM
same,IC50,H-1975 cells; Table 11,19.2 µM
same,IC50,"LNCaP cells [1]; human, 72 h",10.9 µM
same,IC50,"C4-2B cells [4]; human, 72 h",5.7 µM
CC(=O)N1N=C(/C=C/C2C(C)=CCCC2(C)C)CC1c1ccccc1C(F)(F)F (stereo not shown) [Compound C6],IC50,MCF-7 cells; Table 11,18.3 µM
same,IC50,MDA-MB-231 cells; [22],15.4 µM
same,IC50,H-1975 cells; Table 11,18.3 µM
same,IC50,"LNCaP cells [1]; human, 72 h",18.2 µM
same,IC50,"C4-2B cells [4]; human, 72 h",16.6 µM
CC(=O)N1N=C(/C=C/C2C(C)=CCCC2(C)C)CC1c1ccc(C(F)(F)F)cc1 (stereo not shown) [Compound C7],IC50,MCF-7 cells; Table 11,20.8 µM
same,IC50,MDA-MB-231 cells; [22],20 µM
same,IC50,H-1975 cells; Table 11,17.9 µM
same,IC50,"LNCaP cells [1]; human, 72 h",16.6 µM
same,IC50,"C4-2B cells [4]; human, 72 h",14.4 µM
"COc1cc(/C=C/C(=O)CC(=O)/C=C/c2ccc(O)c(OC)c2)ccc1O [Curcumin, reference compound]",IC50,MCF-7 cells; Table 10,13.6 µM
same,IC50,MDA-MB-231 cells; [11],15.7 µM
same,IC50,H-1975 cells; Table 10,> 25 µM
same,IC50,PC-3 cells [6]; [12],16.8 µM
same,IC50,LNCaP cells [7]; [13],8.5 µM
same,IC50,22Rv1 cells [8]; [15],18.3 µM
same,IC50,C4-2B cells [9]; [16],6.1 µM
